Measured values taken from patent publication US20150274719A1, “AMINO-SUBSTITUTED IMIDAZO[1,2-A]PYRIDINECARBOXAMIDES AND THEIR USE” (BAYER PHARMA AKTIENGESELLSCHAFT, priority 2012, published 2015).

molecular target: T1, recombinant guanylate cyclase reporter cell line (Rattus norvegicus, UniProt P19686+P20595); assay: Action on recombinant guanylate cyclase reporter cell line; type: cell-based; details: in some cases mean values from individual determinations
T1 construct: expressed in transfected cells; host or cells: recombinant reporter cell line
T1 sequence (P19686 1-690): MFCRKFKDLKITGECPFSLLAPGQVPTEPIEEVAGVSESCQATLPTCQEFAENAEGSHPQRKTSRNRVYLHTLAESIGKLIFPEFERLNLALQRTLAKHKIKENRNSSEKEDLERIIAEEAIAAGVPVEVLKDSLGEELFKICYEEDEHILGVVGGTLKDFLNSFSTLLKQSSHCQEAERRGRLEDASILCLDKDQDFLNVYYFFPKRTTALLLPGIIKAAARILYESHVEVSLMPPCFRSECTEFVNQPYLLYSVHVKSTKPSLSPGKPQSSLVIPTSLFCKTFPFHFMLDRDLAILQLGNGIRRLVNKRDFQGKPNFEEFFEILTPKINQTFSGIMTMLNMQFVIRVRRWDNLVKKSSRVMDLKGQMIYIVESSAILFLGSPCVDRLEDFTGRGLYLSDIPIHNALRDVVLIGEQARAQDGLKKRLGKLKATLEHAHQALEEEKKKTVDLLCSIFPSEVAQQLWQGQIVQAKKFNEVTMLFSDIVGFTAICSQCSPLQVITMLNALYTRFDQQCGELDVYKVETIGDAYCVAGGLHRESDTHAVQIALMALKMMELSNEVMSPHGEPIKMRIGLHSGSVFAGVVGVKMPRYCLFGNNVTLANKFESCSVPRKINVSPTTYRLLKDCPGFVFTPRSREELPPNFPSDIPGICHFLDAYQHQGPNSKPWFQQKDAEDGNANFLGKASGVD
T1 sequence (P20595 1-619): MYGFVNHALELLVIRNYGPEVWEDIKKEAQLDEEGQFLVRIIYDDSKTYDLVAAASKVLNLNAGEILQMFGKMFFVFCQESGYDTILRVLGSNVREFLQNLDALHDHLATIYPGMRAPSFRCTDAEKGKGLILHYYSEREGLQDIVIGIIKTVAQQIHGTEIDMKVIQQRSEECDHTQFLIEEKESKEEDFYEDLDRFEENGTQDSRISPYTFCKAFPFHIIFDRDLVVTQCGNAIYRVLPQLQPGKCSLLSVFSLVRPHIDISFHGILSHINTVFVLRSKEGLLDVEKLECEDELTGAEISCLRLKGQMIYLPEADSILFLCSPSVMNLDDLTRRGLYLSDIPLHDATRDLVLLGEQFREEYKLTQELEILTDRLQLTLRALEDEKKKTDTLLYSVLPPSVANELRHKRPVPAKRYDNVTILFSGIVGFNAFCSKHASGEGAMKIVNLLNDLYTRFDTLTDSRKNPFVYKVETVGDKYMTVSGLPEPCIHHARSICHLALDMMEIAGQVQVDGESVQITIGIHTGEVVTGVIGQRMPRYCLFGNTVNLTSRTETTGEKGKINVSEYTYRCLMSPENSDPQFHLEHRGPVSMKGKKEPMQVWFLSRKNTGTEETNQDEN
Procedure, shortened: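 Read-out: MEC (minimal effective concentration) in cells. Reporter line carries recombinant sGC. Some values are averages of single runs.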

Structure (SMILES) | MEC (minimal effective concentration)
Cc1cc(OCc2c(F)cccc2F)c2nc(C)c(C(=O)NC3CCNCC3(F)F)n2c1 (racemic) [Example 299, rac-8-[(2,6-difluorobenzyl)oxy]-N-(3,3-difluoropiperidin-4-yl)-2,6-dimethylimidazo[1,2-a]pyridine-3-carboxamide] | 0.10 µM
Cc1cc(OCc2c(F)cccc2F)c2nc(C)c(C(=O)NC3CCNC(C(F)(F)F)C3)n2c1 (racemic) [Example 302, rac-8-[(2,6-difluorobenzyl)oxy]-2,6-dimethyl-N-[2-(trifluoromethyl)piperidin-4-yl]imidazo[1,2-a]pyridine-3-carboxamide] | 0.10 µM
Cc1cc(OCc2c(F)cccc2F)c2nc(C)c(C(=O)NCC(C)(N)Cc3nc4ccccc4s3)n2c1 (racemic) [Example 310, rac-N-[2-amino-3-(1,3-benzothiazol-2-yl)-2-methylpropyl]-8-[(2,6-difluorobenzyl)oxy]-2,6-dimethylimidazo[1,2-a]pyridine-3-carboxamide] | 0.30 µM
Cc1cc(OCc2c(F)cccc2F)c2nc(C)c(C(=O)NC3CNCC(F)(F)C3)n2c1 (racemic) [Example 312, rac-8-[(2,6-difluorobenzyl)oxy]-N-(5,5-difluoropiperidin-3-yl)-2,6-dimethylimidazo[1,2-a]pyridine-3-carboxamide] | 0.30 µM
Cc1cc(OCc2c(F)cccc2F)c2nc(C)c(C(=O)NC3CCCCNC3)n2c1 (racemic) [Example 316, rac-N-(azepan-3-yl)-8-[(2,6-difluorobenzyl)oxy]-2,6-dimethylimidazo[1,2-a]pyridine-3-carboxamide] | 0.30 µM
CCCC(C)(N)CNC(=O)c1c(C)nc2c(OCc3cccc(C)c3F)cc(C)cn12 (racemic) [Example 317, rac-N-(2-amino-2-methylpentyl)-8-[(2-fluoro-3-methylbenzyl)oxy]-2,6-dimethylimidazo[1,2-a]pyridine-3-carboxamide] | 0.30 µM
Cc1cc(OCc2c(F)cccc2F)c2nc(C)c(C(=O)NC3CCC3(C)N)n2c1 (racemic) [Example 331, rac-N-(2-amino-2-methylcyclobutyl)-8-[(2,6-difluorobenzyl)oxy]-2,6-dimethylimidazo[1,2-a]pyridine-3-carboxamide] | 0.30 µM
CCCC(C)(N)CNC(=O)c1c(C)nc2c(OCc3ccccc3)cc(C)cn12 (racemic) [Example 340, rac-N-(2-amino-2-methylpentyl)-8-(benzyloxy)-2,6-dimethylimidazo[1,2-a]pyridine-3-carboxamide] | 1.00 µM
Cc1cc(OCc2c(F)cccc2F)c2nc(C)c(C(=O)NC3CCC4NCCC43)n2c1 (racemic) [Example 342, rac-8-[(2,6-Difluorobenzyl)oxy]-2,6-dimethyl-N-(octahydrocyclopenta[b]pyrrol-4-yl)imidazo[1,2-a]pyridine-3-carboxamide] | 1.00 µM
Cc1cc(OCc2c(F)cccc2F)c2nc(C)c(C(=O)NCC3CN(Cc4ccccc4)CCO3)n2c1 (racemic) [Example 344, rac-N-[(4-benzylmorpholin-2-yl)methyl]-8-[(2,6-difluorobenzyl)oxy]-2,6-dimethylimidazo[1,2-a]pyridine-3-carboxamide] | 1.00 µM
Cc1cc(OCc2c(F)cccc2F)c2nc(C)c(C(=O)NC3CNCC3F)n2c1 (racemic) [Example 347, rac-8-[(2,6-Difluorobenzyl)oxy]-N-(4-fluoropyrrolidin-3-yl)-2,6-dimethylimidazo[1,2-a]pyridine-3-carboxamide] | 1.00 µM
CCCC(C)(N)CNC(=O)c1c(C)nc2c(OCc3cccc(F)c3)cc(C)cn12 (racemic) [Example 348, rac-N-(2-amino-2-methylpentyl)-8-[(3-fluorobenzyl)oxy]-2,6-dimethylimidazo[1,2-a]pyridine-3-carboxamide] | 1.00 µM
Cc1cc(OCc2c(F)cccc2F)c2nc(C)c(C(=O)NCC(C)(N)COc3ccc(F)c(F)c3)n2c1 (racemic) [Example 350, rac-N-[2-amino-3-(3,4-difluorophenoxy)-2-methylpropyl]-8-[(2,6-difluorobenzyl)oxy]-2,6-dimethylimidazo[1,2-a]pyridine-3-carboxamide] | 1.00 µM

Now from value to compound:

MEC (minimal effective concentration) | Structure (SMILES)
0.10 µM | Cc1cc(OCc2c(F)cccc2F)c2nc(C)c(C(=O)NCC(C)(N)Cc3ccccn3)n2c1 (racemic) [Example 297, rac-N-[2-amino-2-methyl-3-(pyridin-2-yl)propyl]-8-[(2,6-difluorobenzyl)oxy]-2,6-dimethylimidazo[1,2-a]pyridine-3-carboxamide]
0.10 µM | CCCC(C)(N)CNC(=O)c1c(CC)nc2c(OCc3c(F)cccc3F)cc(C)cn12 (racemic) [Example 301, rac-N-(2-amino-2-methylpentyl)-8-[(2,6-difluorobenzyl)oxy]-2-ethyl-6-methylimidazo[1,2-a]pyridine-3-carboxamide]
0.30 µM | CCCC(C)(N)CNC(=O)c1c(C)nc2c(OCc3c(F)c(F)cc(F)c3F)cc(C)cn12 (racemic) [Example 311, rac-N-(2-amino-2-methylpentyl)-2,6-dimethyl-8-[(2,3,5,6-tetrafluorobenzyl)oxy]imidazo[1,2-a]pyridine-3-carboxamide]
0.30 µM | Cc1cc(OCc2c(F)cccc2F)c2nc(C)c(C(=O)NC3(C)CC3(C)N)n2c1 (racemic) [Example 320, rac-N-(2-amino-1,2-dimethylcyclopropyl)-8-[(2,6-difluorobenzyl)oxy]-2,6-dimethylimidazo[1,2-a]pyridine-3-carboxamide (racemate)]
0.30 µM | Cc1cc(OCc2c(F)cccc2F)c2nc(C)c(C(=O)NCC(C)(N)Cc3ncn(-c4cc(C)on4)n3)n2c1 (racemic) [Example 321, rac-N-{2-amino-2-methyl-3-[1-(5-methyl-1,2-oxazol-3-yl)-1H-1,2,4-triazol-3-yl]propyl}-8-[(2,6-difluorobenzyl)oxy]-2,6-dimethylimidazo[1,2-a]pyridine-3-carboxamide]
0.30 µM | Cc1cc(OCc2c(F)cccc2F)c2nc(C)c(C(=O)NC3CC3N)n2c1 (racemic) [Example 330, rac-N-(2-aminocyclopropyl)-8-[(2,6-difluorobenzyl)oxy]-2,6-dimethylimidazo[1,2-a]pyridine-3-carboxamide]
0.30 µM | Cc1cc(OCc2c(F)cccc2F)c2nc(C)c(C(=O)NC3(C)CCC3(C)N)n2c1 (racemic) [Example 335, rac-N-[2-amino-1,2-dimethylcyclobutyl]-8-[(2,6-difluorobenzyl)oxy]-2,6-dimethylimidazo[1,2-a]pyridine-3-carboxamide]
0.30 µM | Cc1cc(OCc2c(F)cccc2F)c2nc(C)c(C(=O)NC3C(N)C3(C)C)n2c1 (racemic) [Example 341, rac-N-(3-amino-2,2-dimethylcyclopropyl)-8-[(2,6-difluorobenzyl)oxy]-2,6-dimethylimidazo[1,2-a]pyridine-3-carboxamide (racemate)]
1.00 µM | CCCC(C)(N)CNC(=O)c1c(C)nc2c(OCc3ccccc3Cl)cc(C)cn12 (racemic) [Example 343, rac-N-(2-amino-2-methylpentyl)-8-[(2-chlorobenzyl)oxy]-2,6-dimethylimidazo[1,2-a]pyridine-3-carboxamide]
1.00 µM | Cc1cc(OCc2c(F)cccc2F)c2nc(C)c(C(=O)NCC3CNCCO3)n2c1 (racemic) [Example 345, rac-8-[(2,6-Difluorobenzyl)oxy]-2,6-dimethyl-N-(morpholin-2-ylmethyl)imidazo[1,2-a]pyridine-3-carboxamide]
1.00 µM | Cc1cc(OCc2c(F)cccc2F)c2nc(C)c(C(=O)NC34CCC3CNC4)n2c1 (racemic) [Example 346, rac-N-(3-azabicyclo[3.2.0]hept-1-yl)-8-[(2,6-difluorobenzyl)oxy]-2,6-dimethylimidazo[1,2-a]pyridine-3-carboxamide]
